For this assay, the system named is HCT 116 cells. The assay is described as follows: CellTiter-Glo Luminescent Cell Viability Assay in HCT 116 cells. Type of assay: cell-based. Particulars: Homo sapiens, HCT-116, 120 h, HCT 116 human colon carcinoma cell viability, 120 h (5 days) incubation, 10 concentrations 30 μM to 0.0015 μM, triplicate. The text has this:
CellTiter-Glo™ Assay in HCT 116 Cells
The CellTiter-Glo™ Luminescent Cell Viability Assay (Promega) is a homogeneous method of determining the number of viable cells in culture based on quantitation of the ATP present, which signals the presence of metabolically active cells.
HCT 116 cells (human colon carcinoma, ATCC-No. CCl1-247) were cultivated in RPMI 1640 medium with GlutaMAX™ I (Invitrogen, Cat-No. 61870-010), 2.5% Fetal Calf Serum (FCS, Sigma Cat-No. F4135 (FBS)); 100 Units/ml penicillin/100 μg/ml streptomycin (=Pen/Strep from Invitrogen Cat. No. 15140). For the assay the cells were seeded in 384 well plates, 1000 cells per well, in the same medium. The next day the test compounds were added in various concentrations ranging from 30 μM to 0.0015 μM (10 concentrations, 1:3 diluted). After 5 days the CellTiter-Glo™ assay was done according to the instructions of the manufacturer (CellTiter-Glo™ Luminescent Cell Viability Assay, from Promega). In brief: the cell-plate was equilibrated to room temperature for approximately 30 minutes and than the CellTiter-Glo™ reagent was added. The contents were carefully mixed for 15 minutes to induce cell lysis. After 45 minutes the luminescent signal was measured in Victor 2, (scanning multiwell spectrophotometer, Wallac).
Medium: RPMI 1640 with GlutaMAX™ I (Invitrogen, Cat-Nr. 61870), 5% FCS (Sigma Cat.-No. F4135), Pen/Strep (Invitrogen, Cat No. 15140).
HCT116 (ATCC-No. CCl-247): 1000 cells in 60 μl per well of 384 well plate (Greiner 781098, μClear-plate white)
After seeding incubate plates 24 h at 37° C., 5% CO2
2nd. Day: Induction (Treatment with Compounds, 10 Concentrations):
In order to achieve a final concentration of 30 μM as highest concentration 3,5 μl of 10 mM compound stock solution were added directly to 163 μl media. Then step e) of the dilution procedure described below, was followed.
In order to achieve the second highest to the lowest concentrations, a serial dilution with dilution steps of 1:3 was followed according to the procedure (a–e) as described here below: • a) for the second highest concentration add 10 μl of 10 mM stock solution of compound to 20 μl dimethylsulfoxide (DMSO) • b) dilute 8×1:3 (always 10 μl to 20 μl DMSO) in this DMSO dilution row (results in 9 wells with concentrations from 3333.3 μM to 0.51 μM) • c) dilute each concentration 1: 47.6 (3.5 μl compound dilution to 163 μl media) • e) add 10 μl of every concentration to 60 μl media in the cell plate resulting in final concentration of DMSO : 0.3% in every well and resulting in 10 final concentration of compounds ranging from 30 μM to 0.0015 μM. • Each compound is tested in triplicate. • Incubate 120 h (5 days) at 37° C., 5% CO2
Analysis: • Add 30 μl CellTiter-Glo™ Reagent per well, • shake 15 minutes at room temperature • incubate further 45 minutes at room temperature without shaking
Measurement: • Victor 2 scanning multiwell spectrophotometer (Wallac), Luminescence mode (0.5 sec/read, 477 nm) • Determine IC50 using a non-linear curve fit (XLfit software (ID Business Solution Ltd., Guilford, Surrey, UK))
(Cellular ATP, detected with luciferase, serves as a proxy for viable cell number.)

Counter-ions that a name gives are not always drawn.

As a reminder, the IC50 is the concentration that inhibits the measured activity by half. A lower IC50 goes with greater potency.

Take `O=C(NS(=O)(=O)/C=C/c1ccc(Cl)nc1)c1ccc(Cl)cc1Cl` [Example 2-20, (E)-2-(6-Chloro-pyridin-3-yl)-ethenesulfonic acid 2,4-dichloro-benzoylamide; sodium salt]: the IC50 lay in the range of 0.5 to 15 µM. Under `O=C(NS(=O)(=O)/C=C/c1ccccn1)c1ccc(F)cc1Cl` [Example 2-6, (E)-2-Pyridin-2-yl-ethenesulfonic acid 2-chloro-4-fluoro-benzoylamide; sodium salt] stands 0.5 to 15 µM; under `O=C(NS(=O)(=O)/C=C/c1ccsc1)c1ccc(F)cc1C(F)(F)F` [Example 1-5, (E)-2-Thiophen-3-yl-ethenesulfonic acid 4-fluoro-2-trifluoromethyl-benzoylamide; sodium salt], 0.5 to 15 µM; under `Cc1cc(Cl)ccc1C(=O)NS(=O)(=O)/C=C/c1ccccn1` [Example 4-2, (E)-2-Pyridin-2-yl-ethenesulfonic acid 4-chloro-2-methyl-benzoylamide; sodium salt], 0.5 to 15 µM.

`O=C(NS(=O)(=O)/C=C/c1csc2ccccc12)c1ccc(F)cc1C(F)(F)F` [Example 2-28, (E)-2-Benzo[b]thiophen-3-yl-ethenesulfonic acid 4-fluoro-2-trifluoromethyl-benzoylamide; sodium salt] showed an IC50 of 0.5 to 15 µM.

`Cc1cc(F)ccc1C(=O)NS(=O)(=O)/C=C/c1cccs1` [Example 5-1, (E)-2-Thiophen-2-yl-ethenesulfonic acid 4-fluoro-2-methyl-benzoylamide]: the 50% inhibitory concentration (IC50) lay within 0.5 to 15 µM. Turning to `O=C(NS(=O)(=O)/C=C/c1sccc1Br)c1ccc(Cl)cc1Cl` [Example 2-24, (E)-2-(3-Bromo-thiophen-2-yl)-ethenesulfonic acid 2,4-dichloro-benzoylamide; sodium salt], the IC50 was 0.5 to 15 µM. For the compound `O=C(NS(=O)(=O)/C=C/c1ccccn1)c1ccc(Cl)cc1Cl` [Example 2-2, (E)-2-Pyridin-2-yl-ethenesulfonic acid 2,4-dichloro-benzoylamide; sodium salt], the IC50 was 0.5 to 15 µM.

`O=C(NS(=O)(=O)/C=C/c1csc2ccccc12)c1ccc(Cl)cc1Cl` [Example 2-27, (E)-2-Benzo[b]thiophen-3-yl-ethenesulfonic acid 2,4-dichloro-benzoylamide; sodium salt] displayed an IC50 of 0.5 to 15 µM. For the compound `O=C(NS(=O)(=O)/C=C/c1cncnc1)c1ccc(Cl)cc1Cl` [Example 2-18, (E)-2-Pyrimidin-5-yl-ethenesulfonic acid 2,4-dichloro-benzoylamide; sodium salt], the half-maximal inhibitory concentration (IC50) is 0.5 to 15 µM. In the case of `O=C(NS(=O)(=O)/C=C/c1cccnc1)c1ccc(C(F)(F)F)cc1C(F)(F)F` [Example 2-14, (E)-2-Pyridin-3-yl-ethenesulfonic acid 2,4-bis-trifluoromethyl-benzoylamide; sodium salt], the IC50 fell in the range of 0.5 to 15 µM.

`COc1ccc(/C=C/S(=O)(=O)NC(=O)c2ccc(F)cc2Cl)cn1` [Example 2-10, (E)-2-(6-Methoxy-pyridin-3-yl)-ethenesulfonic acid 2-chloro-4-fluoro-benzoylamide; sodium salt] had a half-maximal inhibitory concentration (IC50) of 0.5 to 15 µM. Under `Cc1ccc(/C=C/S(=O)(=O)NC(=O)c2ccc(Cl)cc2Cl)s1` [Example 1-8, (E)-2-(5-Methyl-thiophen-2-yl)-ethenesulfonic acid 2,4-dichloro-benzoylamide] stands 0.5 to 15 µM; under `Cc1ccc(C(=O)NS(=O)(=O)/C=C/c2ccncc2)c(C)c1` [Example 4-17, (E)-2-Pyridin-4-yl-ethenesulfonic acid 2,4-dimethyl-benzoylamide; sodium salt], 0.5 to 15 µM; under `O=C(NS(=O)(=O)/C=C/c1cccnc1)c1ccc(Cl)cc1Cl` [Example 2-1, (E)-2-Pyridin-3-yl-ethenesulfonic acid 2,4-dichloro-benzoylamide; sodium salt], 3.41 µM. Then `Cc1csc(/C=C/S(=O)(=O)NC(=O)c2ccc(Cl)cc2Cl)c1` [Example 1-10, (E)-2-(4-Methyl-thiophen-2-yl)-ethenesulfonic acid 2,4-dichloro-benzoylamide], with 0.5 to 15 µM; and `Cc1ccc(C(=O)NS(=O)(=O)/C=C/c2cccs2)c(C)c1` [Example 3-13, (E)-2-Thiophen-2-yl-ethenesulfonic acid 2,4-dimethyl-benzoylamide; sodium salt], with 0.5 to 15 µM. Then `Cc1cc(Br)ccc1C(=O)NS(=O)(=O)/C=C/c1ccccn1` [Example 4-4, (E)-2-Pyridin-2-yl-ethenesulfonic acid 4-bromo-2-methyl-benzoylamide; sodium salt], with 0.5 to 15 µM.

The values above are taken from patent publication US7208506B2, “Heteroarylethenyl derivatives, their manufacture and use as pharmaceutical agents” (Hoffmann-La Roche Inc., priority 2005, dated 2007).
